Read-outs that look alike come from different tables or passages of the source.
What was measured:
[1] = molecular target: T1, rat lens aldose reductase (RLAR) (Rattus norvegicus, UniProt P07943); assay: Determination of RLAR inhibition in vitro (NADPH decrease at 340 nm, DL-glyceraldehyde substrate); assay type: biochemical; set-up: inhibition: dose or concentration left out as unconfirmed; conditions: for IC50: Experiments; for inhibition: Table 2, printed under head DPPH/Experiments;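 for all read-outs here: crude enzyme from Sprague–Dawley rat lens homogenate supernatant, absorbance read over 3 min in pH 6.2 potassium phosphate buffer with 1.6 mM NADPH and 25 mM substrate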
T1 construct: The supernatant was collected and used as the RLAR; from tissue; host or cells: Sprague–Dawley rat lens homogenate, 10,000 x g supernatant
Experimental: Crude RLAR was prepared as follows: lenses weighing 250–280 g were removed from Sprague–Dawley rats and frozen at −70 °C until use. […] Non-cataractous transparent lenses were pooled and a homogenate was prepared in 0.1 M phosphate-buffered saline (pH 6.2). RLAR homogenate was then centrifuged at 10,000× g for 20 min at 4 °C in a refrigerated centrifuge. The supernatant was collected and used as the RLAR. All procedures were carried out at 4 °C [37].
RLAR activity was assayed spectrophotometrically by measuring the decrease in the absorption of NADPH at 340 nm over a 3-min period using DL-glyceraldehyde as the substrate. Each 1.0 mL cuvette contained equal units of the enzyme, 0.10 M potassium phosphate buffer (pH 6.2), 1.6 mM NADPH, 25 mM DL-glyceraldehyde (the substrate), and an inhibitor or dimethyl sulfoxide (DMSO).

[2] = molecular target: T1, rat lens aldose reductase (RLAR)
[3] = DPPH free radical scavenging capacity
Experimental: The stable free radical was used to determine the free radical-scavenging activity of the extracts. Briefly, a 0.32 mM solution of DPPH in MeOH was prepared, and 180 µL of this solution was mixed with 30 µL of each sample at concentrations of 0.05–1.0 mg/mL in DMSO. After 20 min of incubation in the darkroom, the decrease in the absorbance of the solution was measured at 570 nm on a microplate reader (EL800 Universal Microplate reader, Bio-Tek instruments, Winooski, VT, USA). DPPH inhibitory activity was expressed as the percentage inhibition (%) of DPPH in the aforementioned assay system, and was calculated as [1 − (Asample − Ablank/Acontrol − Ablank)] × 100%, where Acontrol is the absorbance of DPPH solution (180 µL) with methanol (30 µL); Ablank is the absorbance of distilled water (180 µL) with methanol (30 µL); Asample is the absorbance of DPPH solution (180 µL) with sample solution (30 µL).

[4] = Offline DPPH HPLC assay of the n-BuOH fraction (peak area reduction); conditions: n-BuOH fraction 20 mg/mL mixed with […] DPPH, 20 min, HPLC 254 nm
Experimental: The sample was analyzed using an Agilent Technologies modular model 1200 system with a vacuum degasser (G1322A), a quaternary pump (G1311A), an auto-sampler (G1329A), a thermo-statted column compartment (G1316A), and a variable wavelength detector (VWD, G1314D) system. The separation was achieved on an Eclipse XDB-phenyl column (150 mm × 4.6 mm, 3.5 μm) maintained at 30 °C. The elution solvents were 0.1% trifluoroacetic acid (A) and MeOH (B) with the following gradient: 20%–30% B (0–3 min), 30%–40% B (3–10 min), 40%–50% B (10–20 min), 50%–60% B […], 60%–100% B (25–35 min), 100%–100% B (35–38 min), 100%–20% B (38–40 min), and 20%–20% B (40–45 min). Injection volume was 10 µL (sample concentration: 1 mg/mL) and UV wavelength was 254 nm.
The offline DPPH HPLC assay was performed by modifying a previously-described protocol. Thirty microliters (20 mg/mL in MeOH) of the n-BuOH fraction from APE were mixed with 180 μL prepared DPPH solution (0.32 mM). The mixture was incubated in the dark for 20 min, then filtered through a 0.45-μm filter for HPLC analysis. The n-BuOH (20 mg/mL in MeOH) was used as a control. The extent of peak decrease is expressed as a quantitative reduction.

[5] = tested on: sorbitol accumulation in rat lenses; assay: Lens culture and intracellular sorbitol measurement (ex vivo); conditions: compound 5.0 μg/mL; for Inhibition (%) of sorbitol accumulation in rat lens: isolated rat lens ex vivo; for Sorbitol Content (mg)/Lens Wet Weight (g): isolated rat lens, 30 mM glucose medium, 6 d
Experimental: Lenses isolated from 10-week-old Sprague–Dawley rats using the registration number mentioned in the section of 4.5 were cultured for 6 d in TC-199 medium that contained 15% fetal bovine serum, 100 units/mL penicillin, and 0.1 mg/mL streptomycin, under sterile conditions and an atmosphere of 5% CO2 and 95% air at 37 °C. Samples were dissolved in DMSO. The lenses were divided into three groups and cultured in medium containing 30 mM glucose and RLAR-active compounds. Each lens was placed in a well containing 2.0 mL of medium. Sorbitol was determined by HPLC using the methods mentioned in the section of 4.7 after its derivatization by reaction with benzoic acid to a fluorescent compound [42].

[6] = molecular target: T2, recombinant human aldose reductase (RHAR) (Homo sapiens, UniProt P15121); assay: Determination of inhibition type of RHAR (Lineweaver-Burk plots); assay type: biochemical; conditions: DL-glyceraldehyde 1.0 to 25.0 mM
T2 construct: purchased Wako Pure Chemical Industries (Osaka, Japan)
Experimental: Reaction mixtures consisted of 0.1 M potassium phosphate, 1.6 mM NADPH, and 2 mM of RHAR with varied concentrations of substrate DL-glyceraldehyde and AR inhibitor in a total volume of 600 μL. […] RHAR activity was assayed by measuring the decrease in absorption of NADPH after substrate addition at 340 nm using a Bio Tek Power Wave XS spectrophotometer (Bio Tek Instruments, Winooski, VT, USA) [41].

[7] = molecular target: T2, recombinant human aldose reductase (RHAR); conditions: cited from earlier work; for Inhibition type (References): Table 3; for inhibition pattern against RHAR: ref Lee et al., Ha et al., Chethan et al. 31, 32, 33
[8] = literature value; read-out: RLAR IC50 (References); cited from earlier work

Compound	IC50 [1] [µM]	inhibition [1] [%]	IC50 [3] [µM]	IC50 [2, 8] [µM]	Inhibition (%) of sorbitol accumulation in rat lens [5] [%]	Sorbitol Content (mg)/Lens Wet Weight (g) [5] [mg/g]	further results
C[C@@H]1O[C@@H](OC[C@H]2O[C@@H](Oc3c(-c4ccc(O)c(O)c4)oc4cc(O)cc(O)c4c3=O)[C@H](O)[C@@H](O)[C@@H]2O)[C@H](O)[C@H](O)[C@H]1O [Rutin (RT), rutin]	9.5 ± 0.75	31.7 ± 0.65	66.8 ± 0.34				peak area reduction (PAR) [4]: lower than 20.0%
O=c1c(O[C@@H]2O[C@H](CO)[C@@H](O)[C@H](O)[C@H]2O)c(-c2ccc(O)c(O)c2)oc2cc(O)cc(O)c12 [Isoquercitrin (IQC), Isoquercitrin]	5.1 ± 0.88	41 ± 1.07	65.9 ± 0.46	4.5			
O=c1cc(-c2ccc(O)cc2)oc2c([C@@H]3O[C@H](CO)[C@@H](O)[C@H](O)[C@H]3O)c(O)cc(O)c12 [Vitexin (VT), vitexin]	> 30	12.2 ± 0.95	> 250	> 30			DPPH free radical scavenging activity (in words) [3]: no DPPH free radical scavenging activity
O=C(OC1OC2COC(=O)c3cc(O)c(O)c(O)c3-c3c(cc(O)c(O)c3O)C(=O)OC2C2OC(=O)c3cc(O)c(O)c(O)c3-c3c(cc(O)c(O)c3O)C(=O)OC12)c1cc(O)c(O)c(Oc2c(C(=O)OC3OC4COC(=O)c5cc(O)c(O)c(O)c5-c5c(cc(O)c(O)c5O)C(=O)OC4C4OC(=O)c5cc(O)c(O)c(O)c5-c5c(cc(O)c(O)c5O)C(=O)OC34)cc(O)c(O)c2O)c1 (stereo not drawn) [Agrimoniin (AM), agrimoniin]	1.6 ± 0.12		13 ± 0.06		47.6 ± 1.34	0.77 ± 0.02	Inhibition type [6]: Noncompetitive
O=c1c(O[C@@H]2O[C@H](CO)[C@H](O)[C@H](O)[C@H]2O)c(-c2ccc(O)c(O)c2)oc2cc(O)cc(O)c12 [Hyperin (HP), hyperin]	4.1 ± 0.32	90.8 ± 0.96	73.3 ± 0.23	3			
O=C(O)CC1(CC(=O)O)CCCC1 [TMG, tetramethylene glutaric acid]	0.5 ± 0.05			1			Inhibition (%) RLAR ([1]; Table 1, concentration not in table, text b9: crude extract 10.0 μg/mL, EtOAc, n-BuOH fractions and TMG 1.0 μg/mL): 99.7 ± 0.11%
C[C@@H]1O[C@@H](Oc2c(-c3ccc(O)c(O)c3)oc3cc(O)cc(O)c3c2=O)[C@H](O)[C@H](O)[C@H]1O [Quercitrin (QU), quercitrin]	0.2 ± 0.02		77.9 ± 0.27		76.9 ± 5.32	0.34 ± 0.02	inhibition at 10 µg/mL [1]: 97.4 ± 1.38%; RLAR potency relative to positive control TMG (times higher) ([1]; IC50 0.2 μM vs TMG 0.5 μM): 2.5 times; Inhibition type (References) [7]: Uncompetitive [29]; inhibition pattern against RHAR [7]: uncompetitive
O=c1c(O)c(-c2ccc(O)c(O)c2)oc2cc(O)cc(O)c12 [Quercetin (QC), quercetin]			70.4 ± 0.15		85.7 ± 8.32	0.21 ± 0.02	inhibition at 10 µg/mL [1]: 74.1 ± 0.85%; Inhibition type (References) [7]: Noncompetitive [31]; inhibition pattern against RHAR [7]: noncompetitive
O=c1cc(-c2ccc(O)cc2)oc2cc(O)cc(O)c12 [Apigenin (AG), apigenin]	3.2 ± 0.21	81.8 ± 1.2	156.3 ± 1.21				IC50 ([2]; read-out: RLAR IC50 (References); literature value; cited from earlier work): 2.2 µM

Now from value to compound, other results behind:

IC50 [1] [µM]	inhibition [1] [%]	IC50 [3] [µM]	Compound	IC50 [2, 8] [µM]	Inhibition (%) of sorbitol accumulation in rat lens [5] [%]	Sorbitol Content (mg)/Lens Wet Weight (g) [5] [mg/g]	further results
> 30	7.2 ± 1.02	106.7 ± 0.43	Oc1cc(O)c2c(c1)OC(c1ccc(O)c(O)c1)C(O)C2 (stereo not drawn) [Catechin (CT), catechin]	> 30			
4.3 ± 0.14	40.2 ± 0.56	> 250	O=c1cc(-c2ccc(O)cc2)oc2cc(O[C@@H]3O[C@H](CO)[C@@H](O)[C@H](O)[C@H]3O)cc(O)c12 [Apigenin-7-O-glucoside (AGC), apigenin-7-O-glucoside]	23			peak area reduction (PAR) [4]: lower than 20.0%; DPPH free radical scavenging activity (in words) [3]: almost no DPPH free radical scavenging activity
	80.2 ± 0.9	88.2 ± 0.52	O=c1cc(-c2ccc(O)c(O)c2)oc2cc(O)cc(O)c12 [Luteolin (LT), luteolin]		91.8 ± 7.91	0.12 ± 0.01	Inhibition type (References) [7]: Mixed type [30]; inhibition pattern against RHAR [7]: mixed-type
0.7 ± 0.54	83.3 ± 0.88	80.6 ± 0.38	O=C(O)[C@H]1O[C@@H](Oc2cc(O)c3c(=O)cc(-c4ccc(O)c(O)c4)oc3c2)[C@H](O)[C@@H](O)[C@@H]1O [Luteolin-7-O-glucuronide (LGN), luteolin-7-O-glucuronide]	3.1	91.8 ± 9.01	0.12 ± 0.01	peak area reduction (PAR) [4]: lower than 20.0%; Inhibition type [6]: Noncompetitive
> 30	< 0	> 250	O=C(O)[C@H]1O[C@@H](Oc2cc(O)c3c(=O)cc(-c4ccc(O)cc4)oc3c2)[C@H](O)[C@@H](O)[C@@H]1O [Apigenin-7-O-glucuronide (AGN), apigenin-7-O-glucuronide]				RLAR inhibitory activity (in words) [1]: inactive; peak area reduction (PAR) [4]: lower than 20.0%; DPPH free radical scavenging activity (in words) [3]: almost no DPPH free radical scavenging activity
		147.3 ± 0.43	O=C1O[C@H]([C@@H](O)CO)C(O)=C1O [L-Ascorbic acid, L-ascorbic acid]				Inhibition (%) DPPH ([3]; Table 1, concentration not in table, text b9: crude extract 7.1 μg/mL): 81.0 ± 0.01%
		> 250	C[C@@H]1O[C@@H](Oc2c(-c3ccc(O)cc3)oc3cc(O)cc(O)c3c2=O)[C@H](O)[C@H](O)[C@H]1O [Afzelin (AZ), afzelin]		93.2 ± 8.67	0.10 ± 0.01	DPPH free radical scavenging activity (in words) [3]: no DPPH free radical scavenging activity
8.1 ± 0.72	46.9 ± 0.95	71.5 ± 0.29	O=c1cc(-c2ccc(O)c(O)c2)oc2cc(O[C@@H]3O[C@H](CO)[C@@H](O)[C@H](O)[C@H]3O)cc(O)c12 [Luteolin-7-O-glucoside (LGC), luteolin-7-O-glucoside]	7.5			peak area reduction (PAR) [4]: lower than 20.0%
5.1 ± 0.89	53.3 ± 1.14	> 250	O=c1c(O[C@@H]2O[C@H](CO)[C@@H](O)[C@H](O)[C@H]2O)c(-c2ccc(O)cc2)oc2cc(O)cc(O)c12 [Astragalin (AS), astragalin]	> 30			DPPH free radical scavenging activity (in words) [3]: no DPPH free radical scavenging activity
15.2 ± 1.32	11.8 ± 0.81	91.6 ± 0.68	O=c1c(O)c(-c2ccc(O)cc2)oc2cc(O)cc(O)c12 [Kaempferol (KP), kaempferol]	10			

Reference: paper PMC5343914, “Phytochemical Analysis of Agrimonia pilosa Ledeb, Its Antioxidant Activity and Aldose Reductase Inhibitory Potential” (International Journal of Molecular Sciences, 2017)
